In assay [1] the test system is HeLa cervical carcinoma cells. The experiment in a line: Cytotoxicity, alamarBlue assay, HeLa. Type of assay: cell-based, human. The following applies: for EC50: Homo sapiens, HeLa, 72 h incubation, alamarBlue fluorescence, read-out: absolute EC50 HeLa. Here is the method: (§1) Doxorubicin, suramin and miltefosine were used as control compounds.[ ^6b , ^9 ] After incubation with varied concentrations of the compounds for 72 h, cell viability was measured using either an alamarBlue™ assay (for MRC5, HeLa and T. brucei) or MTT assay (for L. major). Absolute EC50 values and selectivity indexes were then calculated from dose‐response curves (Table 2 and S14). […]
(§2) Cell culture reagents were purchased from Thermo Fisher Scientific (Waltham, MA, USA) and used as-is. The Dulbecco’s Minimal Essential Medium (DMEM) formulation contained either high glucose (4.5 g/L, catalogue number: 10569) or low glucose (1 g/L, catalogue number:
(§3) 10567). RPMI-1640 was provided without sodium pyruvate and with L-glutamine (catalogue number: 11875). Phosphate Buffered Saline (PBS) contained NaCl (9 g/L), KH2PO4 (144 mg/L) and Na2HPO4-7.H2O (795 mg/L, catalogue number: 10010049). TrypLE Express™ was provided with EDTA (458 mg/L) and without Phenol Red (catalogue number: 12604021).
MRC-5 cells (human lung fibroblasts) were grown in monolayer (37 °C, 5 % CO2 and 100 % humidity) in DMEM medium (1 g/L glucose), supplemented with 10% heat-inactivated Fetal Bovine Serum (hiFBS), 2 mM L-glutamine, 100 U / mL penicillin and […] streptomycin. HeLa (Human cervical carcinoma cell line) cells were maintained at 37 °C and 5 % CO2 in high glucose DMEM (4.5 g / L) supplemented with 10% hiFBS, 100 U / ml penicillin, […] streptomycin, 2 mM L-glutamine and non-essential aminoacids (1X).
(§4) Cells were cultured according to ATCC recommendations and were used for the experiments while in the exponential growth phase. […]
(§5) Cytotoxicity was measured through the alamarBlue® assay (Thermo Fisher Scientific).[S6,S13] Briefly, 5×10^3 MRC-5 or HeLa cells were seeded in 96-wells plates (100 µL / well) in the presence of increasing concentrations of compound. After 72 hrs of incubation at 37 °C, 20 µL of alamarBlue® solution (110 ng / ml) was added to each well and cells were reincubated for 4 hrs at 37 °C. Then, 50 µL of 3 % SDS were added to each well. The plate was incubated at 37 °C for an extra hour and then analysed by fluorescence with an Infinite F200 plate reader (TECAN Austria, GmbH). The excitation wavelength was fixed at 550 nm and the emission wavelength at 590 nm. The results are expressed as the concentration of compound that reduces
On the technique in general: The colour change of resazurin is a common sign of viable cells or microbes.

Assay [2] concerns F21T-K+ (human telomeric G-quadruplex, mixed parallel/hybrid). The experiment in a line: FRET melting assay, human telomeric G4 in potassium buffer. Type of assay: binding. As to conditions: 200 nM DNA, PIPER and 3 not reliable (spectral overlap). Here is the method: With the library in hand, we began our investigation into G4 stabilization by conducting a Förster resonance energy transfer (FRET) melting assay to assess DNA stabilization using the procedure outlined by De Cian et. al. ^[13] […] The sequences examined (at 200 nM) were the human telomeric G4 in potassium buffer (F21T‐K^+, mixed parallel/hybrid G4) ^[14] and sodium buffer (F21T‐Na^+, antiparallel G4), ^[15] the c‐Myc promoter G‐quadruplex (FmycT‐K^+, parallel G4), ^[16] a polymorphic G4 found in T. brucei (FEBR1T‐K^+, a mixed G4 topology), ^[6b] and a hairpin duplex DNA sequence (F10T‐K^+). Together, these sequences represent targets for therapeutic intervention to treat parasitic infections, ^[6b] or cancer. ^[1b] The topology of each sequence was confirmed independently via circular dichroism (CD, Figure S1). […]
FRET melting assays were performed to assess ligand affinity for duplex and G-quadruplex
DNA. Briefly, oligonucleotides of interest were obtained labelled at the 5’ and 3’ ends with FAM (a fluorescence donor) and TAMRA (a fluorescence quencher), respectively. In the folded state, proximity of the donor and quencher result in no observed fluorescence from FAM, since energy is transferred non-radiatively to TAMRA by FRET. As the temperature is raised and the secondary structure denatures, the fluorophores move further apart and the fluorescence signal increases. From the resulting curve, the characteristic melting temperature (Tmax, also referred to as Tm) is defined as the temperature which corresponds to the maxima of the first derivative of the normalised fluorescence signal. The change in melting temperature (ΔTm) induced by the presence of a small molecule ligand provides an indication of the ligand’s ability to stabilise the DNA structure. FRET experiments were performed according to the […]
procedure reported by De Cian and co-workers[S3] on a Stratagene MX3005P. The method consisted of holding at 25 °C for 5 min, before heating at 1 °C/min to 96 °C in 1 °C increments, […]

The subject of assay [3] is T. brucei. Nature of the assay: Trypanocidal activity, alamarBlue assay. Type of assay: cell-based. The following applies: for EC50: Trypanosoma brucei, 72 h incubation, alamarBlue fluorescence, read-out: absolute EC50 T. brucei. The protocol:
as §1, §2, §3
(§6) MRC-5 cells (human lung fibroblasts) were grown in monolayer (37 °C, 5 % CO2 and 100 % humidity) in DMEM medium (1 g/L glucose), supplemented with 10% heat-inactivated Fetal Bovine Serum (hiFBS), 2 mM L-glutamine, 100 U / mL penicillin and […]
(§7) streptomycin. […]
as §4
hiFBS. Parasites were split every other day and maintained in their experimental growth phase (below 2 million parasites per mL).
as §5

Assay [4] has as its system MRC5 non-tumoral cells. Nature of the assay: Cytotoxicity, alamarBlue assay, MRC5. Type of assay: cell-based, human. The following applies: 72 h incubation, alamarBlue fluorescence, read-out: absolute EC50 MRC5. Here is the method: as §1, §2, §3, §6, §7, §4, §5
[5] abbreviates: selectivity index from EC50 values.
[6] abbreviates: 5 μM ligand, 10 mM KCl, 90 mM LiCl, 10 mM Li cacodylate.

For orientation: EC50 means the concentration giving half of the maximal effect.

Where two headings read alike, the source gives them in different places.

For `CN1CCN(CCCN2C(=O)c3ccc4c5ccc6c7c(ccc(c8ccc(c3c48)C2=O)c75)C(=O)N(CCCN2CCN(C)CC2)C6=O)CC1` [Compound 3], the EC50 in assay [1] turned out to be 53 ± 6.2 µM; in assay [3], 27 ± 10 nM; in assay [4], 2.1 ± 0.6 µM; in assay [4] (Homo sapiens, MRC5, 72 h), 2 µM. Besides, the “SI (MRC5/HeLa)” value in assay [1] (setting [5]) was determined as 0.04. Further, the “ΔTm F21T-K+” value in assay [2] (1 µM ligand) is 10 ± 1 °C; in assay [2] (setting [6]), 34±1 °C; in assay [2] (10 µM ligand), 33 ± 1 °C. Besides, the “SI (MRC5/T. brucei)” value in assay [3] (setting [5]) is 78.

Take `CN1CCN(CCCN2C(=O)c3ccc4c5c(ccc(c35)C2=O)C(=O)N(CCCN2CCN(C)CC2)C4=O)CC1` [Compound 1]: the EC50 came to 0.5 ± 0.05 µM in assay [1]; 610 ± 300 nM in assay [3]; 3.9 ± 0.5 µM in assay [4] (Homo sapiens, MRC5, 72 h).

`CN1CCN(CCCN2C(=O)c3ccc(Oc4ccc(C(C)(C)c5ccc(Oc6ccc7c(c6)C(=O)N(CCCN6CCN(C)CC6)C7=O)cc5)cc4)cc3C2=O)CC1` [Compound 9]: the EC50 stood at 29 ± 3.5 µM in assay [1]; 33000 ± 24000 nM in assay [3]; 88 ± 10 µM in assay [4] (Homo sapiens, MRC5, 72 h). The “ΔTm F21T-K+” value in assay [2] (setting [6]) is −1±1 °C; in assay [2] (10 µM ligand), 8 ± 3 °C.

As to `CN1CCN(CCCNC(=O)c2ccc(Oc3ccc(C(C)(C)c4ccc(Oc5ccc(C(=O)NCCCN6CCN(C)CC6)c(C(=O)NCCCN6CCN(C)CC6)c5)cc4)cc3)cc2C(=O)NCCCN2CCN(C)CC2)CC1` [Compound 11], the EC50 in assay [1] amounted to 14 ± 1 µM; in assay [3] it was 2800 ± 2000 nM; in assay [4] (Homo sapiens, MRC5, 72 h), 59 ± 37 µM. For the same molecule, the “ΔTm F21T-K+” value in assay [2] (1 µM ligand) was -2 ± 1 °C; in assay [2] (setting [6]), 7±2 °C; in assay [2] (10 µM ligand) it was 9 ± 1 °C.

Values taken from paper PMC8251916 (Chemistry (Weinheim an Der Bergstrasse, Germany), 2021).
